The values that follow come from publication PMC11530689, “Anti colorectal cancer activity and in silico studies of novel pyridine nortopsentin analog as cyclin dependent kinase 6 inhibitor” (Scientific Reports, 2024).

For assay [1], the system named is COLO205. The assay can be described thus: NCI 60 cell line screen. Type of assay: cell-based. The conditions noted are these: COLO205, Colon Cancer; single concentration 10^−5 M. The essentials:
(§1)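 One concentration only (10^-5 M); no dose-response. Testing was performed by NCI on 60 different cancer cell lines.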

Assay [2] has as its system EKVX. Description: NCI 60 cell line screen. Type of assay: cell-based. The conditions noted are these: Non-Small Cell Lung Cancer, single concentration 10^−5 M. The essentials:
as §1

The subject of assay [3] is HCC-2998. Description: NCI 60 cell line screen. Type of assay: cell-based. The settings on record: HCC-2998, Colon Cancer; single concentration 10^−5 M. In a few lines: as §1
The test system of assay [4] is HL-60 (TB). Description: NCI 60 cell line screen. Type of assay: cell-based. The settings on record: Leukemia, single concentration 10^−5 M. In a few lines:
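NCI-60 single-point assay, 10^-5 M compound, cytotoxic activity per cell line.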

Assay [5] deals with HOP-62. Description: NCI 60 cell line screen. Type of assay: cell-based. The settings on record: HOP-62, Non-Small Cell Lung Cancer; single concentration 10^−5 M. In a few lines: as §1
The test system of assay [6] is IGROV1. Description: NCI 60 cell line screen. Type of assay: cell-based. The settings on record: IGROV1, Ovarian Cancer; single concentration 10^−5 M. The essentials: as §1
Assay [7] concerns LOX IMVI. Description: NCI 60 cell line screen. Type of assay: cell-based. The conditions noted are these: Melanoma, single concentration 10^−5 M. The essentials:
as §1

The subject of assay [8] is M14. The assay can be described thus: NCI 60 cell line screen. Type of assay: cell-based. The settings on record: M14, Melanoma; single concentration 10^−5 M. The essentials: as §1
Assay [9] concerns MALME-3M. Description: NCI 60 cell line screen. Type of assay: cell-based. The settings on record: Melanoma, single concentration 10^−5 M. The essentials: as §1
Assay [10] relates to MCF7. Description: NCI 60 cell line screen. Type of assay: cell-based. The conditions noted are these: MCF7, Breast Cancer; single concentration 10^−5 M. In a few lines:
as §1

The subject of assay [11] is MDA-MB-435. The assay can be described thus: NCI 60 cell line screen. Type of assay: cell-based. The settings on record: MDA-MB-435, Melanoma; single concentration 10^−5 M. In a few lines:
as §1

For assay [12], the system named is MDA-MB-468. Description: NCI 60 cell line screen. The conditions noted are these: MDA-MB-468, Breast Cancer; single concentration 10^−5 M. Type of assay: cell-based. The essentials: as §1
The subject of assay [13] is MOLT-4. The assay can be described thus: NCI 60 cell line screen. Type of assay: cell-based. The settings on record: MOLT-4, Leukemia; single concentration 10^−5 M. The essentials:
as §1

Assay [14] concerns NCI-H522. Description: NCI 60 cell line screen. Type of assay: cell-based. The conditions noted are these: NCI-H522, Non-Small Cell Lung Cancer; single concentration 10^−5 M. The essentials:
as §1

Assay [15] relates to OVCAR-5. Description: NCI 60 cell line screen. Type of assay: cell-based. The conditions noted are these: OVCAR-5, Ovarian Cancer; single concentration 10^−5 M. The essentials:
as §1

The test system of assay [16] is SF-268. Description: NCI 60 cell line screen. Type of assay: cell-based. The settings on record: SF-268, CNS Cancer; single concentration 10^−5 M. The essentials: as §1
The subject of assay [17] is SF-295. The assay can be described thus: NCI 60 cell line screen. Type of assay: cell-based. The conditions noted are these: SF-295, CNS Cancer; single concentration 10^−5 M. In a few lines:
as §1

For assay [18], the system named is SK-MEL-28. Description: NCI 60 cell line screen. Type of assay: cell-based. The conditions noted are these: SK-MEL-28, Melanoma; single concentration 10^−5 M. In a few lines:
as §1

Assay [19] concerns SK-OV-3. Description: NCI 60 cell line screen. Type of assay: cell-based. The settings on record: SK-OV-3, Ovarian Cancer; single concentration 10^−5 M. In a few lines:
as §1

For assay [20], the system named is SN12C. Description: NCI 60 cell line screen. Type of assay: cell-based. The conditions noted are these: Renal Cancer, single concentration 10^−5 M. In a few lines:
as §1

For assay [21], the system named is SNB-75. The assay can be described thus: NCI 60 cell line screen. Type of assay: cell-based. The conditions noted are these: SNB-75, CNS Cancer; single concentration 10^−5 M. The essentials: as §1
Assay [22] deals with UO-31. The assay can be described thus: NCI 60 cell line screen. The settings on record: UO-31, Renal Cancer; single concentration 10^−5 M. Type of assay: cell-based. In a few lines:
as §1

The test system of assay [23] is CDK2 gene expression. Description: Gene expression by quantitative real-time PCR, CDK2. Type of assay: cell-based, human. The conditions noted are these: IC50 dose, 48 h, normalized to GAPDH, vs control. The protocol:
(§2) The cells were seeded in a six-well plate at a concentration of 3 × 10^5 cells/well. After a 24 h incubation, the IC50 dose of active compound 4i was applied to each well for 48 h. The cells were collected and centrifuged at 2500 rpm for 15 min at 4 °C. The total RNA isolation kit (RNeasy extraction kit—QIAGEN) was used to isolate RNA according to the manufacturer’s instructions.
(§3) Gene expression analysis by quantitative real-time PCR. The levels of gene expression of CDK2, CDK4 and CDK6 were determined using iScript One-Step RT-PCR kit with SYBR Green (BIORAD) according to the manufacturer protocol. The sequences of the used primers are illustrated in Table 4. The genes expression was normalized to GAPDH as the housekeeping gene. The protocol used for cDNA synthesis was: 10 min at 50 °C, iScript Reverse transcriptase inactivation: 5 min at 95 °C and PCR cycling and detection (30 to 45 cycles): 10 s at 95 °C and 30 s at 55 °C to 60 °C.
On the technique in general: Quantitative PCR measures a nucleic acid by following its amplification.

Assay [24] concerns CDK4 gene expression. Description: Gene expression by quantitative real-time PCR, CDK4. Type of assay: cell-based, human. The settings on record: IC50 dose, 48 h, normalized to GAPDH, vs control. On the procedure:
as §2, §3

Assay [25] has as its system CDK6 gene expression. Description: Gene expression by quantitative real-time PCR, CDK6. Type of assay: cell-based, human. The settings on record: IC50 dose, 48 h, normalized to GAPDH, vs control. On the procedure:
as §2, §3

Assay [26] concerns the target CDK2/Cyclin E1 (Homo sapiens, UniProt P24941). The assay can be described thus: Cyclin dependent kinase enzymatic activity assay (ADP-Glo). Type of assay: biochemical. On the procedure:
(§4) ADP-Glo™ Kinase Assay kit (Promega, USA) was used for the enzymatic activity analysis according to the manufacturer’s instructions. In brief, to each well we added 1 μl of inhibitor, 2 μl of each cyclin dependent kinase enzymes, and 2 μl of substrate/ATP mix and incubated at room temperature for 60 min. After that 5 μl of ADP‐Glo™ reagent was added and incubated at room temperature for 40 min. 10 μl of kinase detection reagent was added and incubated at room temperature for 30 min, then the luminescence was measured.

Assay [27] concerns the target CDK4/Cyclin D3 (Homo sapiens, UniProt P11802). The description is as above. Type of assay: biochemical. The protocol:
as §4

Assay [28] addresses CDK6/Cyclin D3 (Homo sapiens, UniProt Q00534). Described as above. Type of assay: biochemical. On the procedure: as §4

Chain of CDK4/Cyclin D3 (P11802 whole entry): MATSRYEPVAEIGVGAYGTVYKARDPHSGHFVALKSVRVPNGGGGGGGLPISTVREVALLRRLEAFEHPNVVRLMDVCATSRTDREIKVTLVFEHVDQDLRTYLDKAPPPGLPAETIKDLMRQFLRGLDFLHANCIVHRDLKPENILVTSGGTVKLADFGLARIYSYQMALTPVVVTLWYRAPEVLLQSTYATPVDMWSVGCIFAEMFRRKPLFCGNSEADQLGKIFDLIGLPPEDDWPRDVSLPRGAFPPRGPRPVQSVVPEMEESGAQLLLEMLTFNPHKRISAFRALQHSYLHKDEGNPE
Chain of CDK4/Cyclin D3 (P30281 whole entry partner): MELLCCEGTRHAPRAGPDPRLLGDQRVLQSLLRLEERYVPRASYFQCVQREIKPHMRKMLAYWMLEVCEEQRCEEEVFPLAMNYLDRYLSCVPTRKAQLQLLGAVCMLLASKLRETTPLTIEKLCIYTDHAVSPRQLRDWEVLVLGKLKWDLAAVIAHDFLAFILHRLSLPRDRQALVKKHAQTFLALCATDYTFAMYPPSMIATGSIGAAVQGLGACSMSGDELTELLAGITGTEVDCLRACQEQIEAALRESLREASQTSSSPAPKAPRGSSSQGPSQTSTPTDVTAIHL
Chain of CDK6/Cyclin D3 (Q00534 whole entry): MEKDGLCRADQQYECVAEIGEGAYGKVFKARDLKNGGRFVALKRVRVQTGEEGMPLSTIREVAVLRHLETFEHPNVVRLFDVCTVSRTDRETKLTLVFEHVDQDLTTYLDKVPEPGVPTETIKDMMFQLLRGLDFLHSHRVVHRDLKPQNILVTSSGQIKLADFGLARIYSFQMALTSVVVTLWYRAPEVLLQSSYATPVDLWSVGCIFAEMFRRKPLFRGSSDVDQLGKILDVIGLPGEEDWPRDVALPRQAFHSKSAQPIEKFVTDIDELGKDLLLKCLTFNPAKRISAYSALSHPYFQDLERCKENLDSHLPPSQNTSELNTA
Chain of CDK6/Cyclin D3 (P30281 whole entry partner): as the sequence (P30281 whole entry partner) above

Regarding `N#Cc1c(-c2ccc([N+](=O)[O-])cc2)cc(-c2c[nH]c3ccccc23)nc1-c1c[nH]c2ccccc12` [4h], the Growth % came out at 114.22% in [1]; 82.20% in assay [2]; 108.98% in assay [3]; 97.00% in assay [4]; 99.88% in assay [5]; 81.21% in assay [6]. Further, the Growth % is reported as 92.89% in assay [7]; 97.98% in assay [8]; 102.24% in assay [9]; 90.39% in [10]; 104.27% in assay [11]; 92.34% in assay [12]. Further, the Growth % in assay [13] was 100.27%; in [14], 95.41%; in [15], 105.31%; in assay [16], 93.92%; in assay [17], 100.99%; in assay [18], 106.75%. Also, the Growth % in assay [19] is given as 90.72%; in [20], 98.48%; in assay [21] it was 90.31%; in assay [22], 70.38%.
Consider `CN(C)c1ccc(-c2cc(-c3c[nH]c4ccccc34)nc(-c3c[nH]c4ccccc34)c2C#N)cc1` [4i], for which the “Relative gene expression of CDK2” value in assay [23] is “significantly suppress the expression”. Also, the “Relative gene expression of CDK4” value in assay [24] is listed as “significantly suppress the expression”. The “Relative gene expression of CDK6” value in [25] was “significantly suppress the expression”. Besides, the IC50 was determined as 658 nM in assay [26], 265 nM in assay [27] and 98 nM in assay [28]. For the same compound, the Growth % is on record as 91.18% in assay [1]; 93.75% in assay [2]; 88.23% in assay [3]; 85.35% in assay [4]; 82.30% in assay [5]; 74.28% in assay [6]. Also, the Growth % in assay [7] is listed as 70.02%; in assay [8] it was 97.66%; in [9], 97.41%; in assay [10] it was 49.30%; in assay [11] it was 81.62%; in assay [12] it was 81.79%. For the same compound, the Growth % came to 98.39% in assay [13]; 93.15% in assay [14]; 102.79% in assay [15]; 96.47% in [16]; 79.83% in assay [17]; 101.89% in [18]. Moreover, the Growth % in assay [19] is listed as 94.88%; in assay [20], 92.07%; in assay [21] it was 86.73%; in assay [22], 72.88%.
Regarding `N#Cc1c(-c2ccc(O)cc2)cc(-c2c[nH]c3ccccc23)nc1-c1c[nH]c2ccccc12` [4j], the Growth % in assay [1] was 111.37%; in [2], 100.08%; in assay [3], 126.05%; in assay [4], 107.76%; in assay [5], 94.38%; in assay [6] it was 76.43%. Further, the Growth % amounted to 62.75% in assay [7]; 100.26% in [8]; 114.20% in assay [9]; 87.55% in assay [10]; 90.35% in [11]; 101.94% in assay [12]. The Growth % in assay [13] worked out at 87.60%; in [14], 85.59%; in assay [15], 108.44%; in assay [16] it was 105.02%; in assay [17], 87.00%; in assay [18], 76.45%. The Growth % turned out to be 96.54% in assay [19], 95.63% in [20], 90.85% in assay [21] and 78.37% in assay [22].

As a reminder, the IC50 is the concentration at which inhibition is half-maximal.
